Laboratory results published in PMC2937029 (PLoS ONE, 2010).
Like-named read-outs stand apart in the source and are kept apart here.

What was measured:
[1] = target: T1, HprK/P (Brucella melitensis, UniProt Q8YE44)
T1 construct: gene BMEI2034

[2] = target: T2, EI^Ntr (Brucella melitensis, UniProt Q8YJ96); conditions: labelled compound; 10 µM [32P]PEP, NPr as acceptor, 5 mM MgCl2, pH 7.4, 37°C; covalent phosphoryl transfer
T2 construct: gene BMEI0190
T2 sequence (Q8YJ96 1-756): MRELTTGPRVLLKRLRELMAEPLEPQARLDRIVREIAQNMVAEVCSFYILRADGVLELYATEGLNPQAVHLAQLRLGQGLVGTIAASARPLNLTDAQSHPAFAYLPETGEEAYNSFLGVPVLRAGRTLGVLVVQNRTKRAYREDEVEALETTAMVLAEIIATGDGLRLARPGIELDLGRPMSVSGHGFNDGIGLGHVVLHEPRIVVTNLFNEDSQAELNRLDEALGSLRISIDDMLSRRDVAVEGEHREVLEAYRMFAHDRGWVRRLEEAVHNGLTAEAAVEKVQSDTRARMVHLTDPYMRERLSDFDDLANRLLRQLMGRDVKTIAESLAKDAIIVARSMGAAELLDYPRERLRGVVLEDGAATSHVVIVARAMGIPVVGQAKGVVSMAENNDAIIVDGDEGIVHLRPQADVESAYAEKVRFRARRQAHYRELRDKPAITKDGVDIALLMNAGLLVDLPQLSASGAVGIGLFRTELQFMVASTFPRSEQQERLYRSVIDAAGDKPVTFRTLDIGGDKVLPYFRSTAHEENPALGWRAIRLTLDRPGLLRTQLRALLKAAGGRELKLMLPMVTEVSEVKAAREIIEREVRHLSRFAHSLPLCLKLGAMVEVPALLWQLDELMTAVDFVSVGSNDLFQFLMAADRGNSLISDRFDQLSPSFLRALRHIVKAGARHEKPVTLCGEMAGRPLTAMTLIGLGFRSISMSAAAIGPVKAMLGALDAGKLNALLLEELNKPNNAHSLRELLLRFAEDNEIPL

T1 sequence (Q8YE44 1-159): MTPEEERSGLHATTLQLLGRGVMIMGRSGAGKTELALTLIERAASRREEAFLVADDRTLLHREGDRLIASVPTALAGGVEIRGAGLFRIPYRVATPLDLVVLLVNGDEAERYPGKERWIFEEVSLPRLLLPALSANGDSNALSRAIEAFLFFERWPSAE

| Structure (SMILES) | 32P NPr kinase assay, SDS-PAGE, phosphorimaging [1] | other results |
| --- | --- | --- |
| Nc1ncnc2c1ncn2[C@@H]1O[C@H](COP(=O)(O)OP(=O)(O)OP(=O)(O)O)[C@@H](O)[C@H]1O [ATP] | – | 32P NPr kinase assay, SDS-PAGE, phosphorimaging ([1]; labelled compound, 25 µM [γ-32P]ATP, NPr as acceptor, no FBP or KPi, 5 mM MgCl2, pH 7.4, 37°C): HprK/P phosphorylated wild type NPr and NPrH30A in an ATP-dependent way |
| O=P(O)(O)OP(=O)(O)O [PPi] | With both phosphoryl group donors, HprK/P was active as a kinase | – |
| C=C(OP(=O)(O)O)C(=O)O [PEP] | – | 32P phosphotransfer to NPr, SDS-PAGE, phosphorimaging [2]: the additional presence of EI allowed the phosphorylation of wild-type NPr |
| O=P(O)(O)O [Pi] | inhibition of both the ATP- and PPi-dependent kinase activities of B. melitensis HprK/P | – |
